Experimental data published in patent US8217029B2, “Oxazolidinone antibiotics” (Actelion Pharmaceuticals Ltd, priority 2007, dated 2012).
Values after ≈ are worked out from the molar mass of the structure shown.

Tested on: S aureus A798
Assay: Minimal inhibitory concentration (MIC), microdilution method in cation-adjusted Mueller-Hinton Broth following NCCLS guidelines
Assay type: cell-based
Details: pH of test medium 7.2-7.3
Summary of the method: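 Broth microdilution per NCCLS M7-A4 in cation-adjusted Mueller-Hinton broth at pH 7.2-7.3; MIC reported in mg/l.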

SMILES	MIC	MIC S aureus A798
COc1ccc2ncc(F)c(N3CCCN(C[C@@H]4CN(c5ccc6c(c5)NC(=O)CS6)C(=O)O4)CC3)c2n1 [Example 104, 6-{(R)-5-[4-(3-Fluoro-6-methoxy-[1,5]naphthyridin-4-yl)-[1,4]diazepan-1-ylmethyl]-2-oxo-oxazolidin-3-yl}-4H-benzo[1,4]thiazin-3-one]	≤ 0.031 µg/mL	–
CCCc1ccc(N2C[C@@H](CN(C)C3CN(c4ccnc5ccc(OC)nc45)C3)OC2=O)cc1 [Example 139, (R)-5-({[1-(6-Methoxy-[1,5]naphthyridin-4-yl)-azetidin-3-yl]-methyl-amino}-methyl)-3-(4-propyl-phenyl)-oxazolidin-2-one]	≤ 0.031 µg/mL	–
COc1ccc2nccc(N3CCN(C[C@@H]4CN(c5cccc(C#N)c5)C(=O)O4)CC3)c2n1 [Example 21, 3-{(R)-5-[4-(6-Methoxy-[1,5]naphthyridin-4-yl)-piperazin-1-ylmethyl]-2-oxo-oxazolidin-3-yl}-benzonitrile]	0.25 µg/mL (≈ 0.562 µM)	–
COc1ccc2ncc(F)c(N3CC[C@H](NC[C@H]4CN(c5ccc6c(c5)NC(=O)CS6)C(=O)O4)C3)c2n1 [Example 164, 6-((S)-5-{[(S)-1-(3-Fluoro-6-methoxy-[1,5]naphthyridin-4-yl)-pyrrolidin-3-ylamino]methyl}-2-oxo-oxazolidin-3-yl)-4H-benzo[1,4]thiazin-3-one]	≤ 0.031 µg/mL	–
COc1ccc2nccc(N3CCCN(C[C@@H]4CN(c5ccc6c(c5)NC(=O)CS6)C(=O)O4)CC3)c2n1 [Example 106, 6-{(R)-5-[4-(6-Methoxy-[1,5]naphthyridin-4-yl)-[1,4]diazepan-1-ylmethyl]-2-oxo-oxazolidin-3-yl}-4H-benzo[1,4]thiazin-3-one]	≤ 0.031 µg/mL	–
COc1ccc2ncc(F)c(N3CCC(N(C)C[C@@H]4CN(c5ccc6c(c5)NC(=O)CS6)C(=O)O4)CC3)c2n1 [Example 124, 6-[(R)-5-({[1-(3-Fluoro-6-methoxy-[1,5]naphthyridin-4-yl)-piperidin-4-yl]-methyl-amino}-methyl)-2-oxo-oxazolidin-3-yl]-4H-benzo[1,4]thiazin-3-one]	≤ 0.031 µg/mL	–
COc1ccc2nccc(N3CCN(C[C@H]4CN(c5ccc6c(c5)NC(=O)CS6)C(=O)O4)CC3)c2n1 [Example 39, 6-{(S)-5-[4-(6-Methoxy-[1,5]naphthyridin-4-yl)-piperazin-1-ylmethyl]-2-oxo-oxazolidin-3-yl}-4H-benzo[1,4]thiazin-3-one]	≤ 0.031 µg/mL	–
COc1ccc2nccc(N3CC(CNC(=O)[C@@H]4CN(c5ccc6c(c5)OCCO6)C(=O)O4)C3)c2n1 [Example 2, (S)-3-(2,3-Dihydro-benzo[1,4]dioxin-6-yl)-2-oxo-oxazolidine-5-carboxylic acid[1-(6-methoxy-[1,5]naphthyridin-4-yl)-azetidin-3-ylmethyl]-amide]	–	4 µg/mL (≈ 8.14 µM)
COc1ccc2nccc(N3CCN(C[C@@H]4CN(c5ccc(C)c(C)c5)C(=O)O4)CC3)c2n1 [Example 27, (R)-3-(3,4-Dimethyl-phenyl)-5-[4-(6-methoxy-[1,5]naphthyridin-4-yl)-piperazin-1-ylmethyl]-oxazolidin-2-one]	≤ 0.031 µg/mL	–
COc1ccc2nc(C)cc(N3CC(NC[C@@H]4CN(c5ccc6c(c5)NC(=O)CS6)C(=O)O4)C3)c2c1 [Example 131, 6-((R)-5-{[1-(6-Methoxy-2-methyl-quinolin-4-yl)-azetidin-3-ylamino]-methyl}-2-oxo-oxazolidin-3-yl)-4H-benzo[1,4]thiazin-3-one]	≤ 0.031 µg/mL	–
COc1ccc2nccc(N3CC(CNC[C@@H]4CN(c5ccc6c(c5)NC(=O)CS6)C(=O)O4)C3)c2c1 [Example 186, 6-[(R)-5-({[1-(6-Methoxy-quinolin-4-yl)-azetidin-3-ylmethyl]-amino}-methyl)-2-oxo-oxazolidin-3-yl]-4H-benzo[1,4]thiazin-3-one]	≤ 0.031 µg/mL	–
COc1ccc2ncnc(N3CCC(O)(CC4CN(c5ccc6c(c5)OCCO6)C(=O)O4)CC3)c2c1 (racemic) [Example 4, (RS)-3-(2,3-Dihydro-benzo[1,4]dioxin-6-yl)-5-[4-hydroxy-1-(6-methoxy-quinazolin-4-yl)-piperidin-4-ylmethyl]-oxazolidin-2-one]	≤ 0.031 µg/mL	–
COc1ccc2nccc(N3CCN(C[C@@H]4CN(c5ccc(C)c(C(F)(F)F)c5)C(=O)O4)CC3)c2n1 [Example 18, (R)-5-[4-(6-Methoxy-[1,5]naphthyridin-4-yl)-piperazin-1-ylmethyl]-3-(4-methyl-3-trifluoromethyl-phenyl)-oxazolidin-2-one]	≤ 0.031 µg/mL	–
COc1ccc2nccc(N3CCCN(C[C@H]4CN(c5ccc6c(c5)NC(=O)CS6)C(=O)O4)CC3)c2n1 [Example 166, 6-{(S)-5-[4-(6-Methoxy-[1,5]naphthyridin-4-yl)-[1,4]diazepan-1-ylmethyl]-2-oxo-oxazolidin-3-yl}-4H-benzo[1,4]thiazin-3-one]	≤ 0.031 µg/mL	–
COc1ccc2nccc(N3CCN(C[C@@H]4CN(c5ccc(F)c(Cl)c5)C(=O)O4)CC3)c2n1 [Example 17, (R)-3-(3-Chloro-4-fluoro-phenyl)-5-[4-(6-methoxy-[1,5]naphthyridin-4-yl)-piperazin-1-ylmethyl]-oxazolidin-2-one]	≤ 0.031 µg/mL	–
COc1ccc2nccc(N3CCN(C[C@@H]4CN(c5ccc(OC)c(OC)c5)C(=O)O4)CC3)c2n1 [Example 14, (R)-3-(3,4-Dimethoxy-phenyl)-5-[4-(6-methoxy-[1,5]naphthyridin-4-yl)-piperazin-1-ylmethyl]-oxazolidin-2-one]	2 µg/mL (≈ 4.17 µM)	–
COc1ccc2nccc(N3CC(NC(=O)[C@@H]4CN(c5ccc6c(c5)OCCO6)C(=O)O4)C3)c2n1 [Example 116, (S)-3-(2,3-Dihydro-benzo[1,4]dioxin-6-yl)-2-oxo-oxazolidine-5-carboxylic acid[1-(6-methoxy-[1,5]naphthyridin-4-yl)-azetidin-3-yl]-amide]	–	<=0.031 mg/l

Further lines, results first:

MIC	MIC S aureus A798	SMILES
0.25 µg/mL (≈ 0.48 µM)	–	COc1ccc2nccc(N3C[C@H](NC[C@@H]4CN(c5ccc6c(c5)NC(=O)CO6)C(=O)O4)[C@@H](OC)C3)c2n1 [Example 181, 6-((R)-5-{[(3S,4S)-4-Methoxy-1-(6-methoxy-[1,5]naphthyridin-4-yl)-pyrrolidin-3-ylamino]-methyl}-2-oxo-oxazolidin-3-yl)-4H-benzo[1,4]oxazin-3-one]
≤ 0.031 µg/mL	–	COc1ccc2nccc(N3CC(NC[C@@H]4CN(c5ccc6c(c5)OCCO6)C(=O)O4)C3)c2n1 [Example 51, (R)-3-(2,3-Dihydro-benzo[1,4]dioxin-6-yl)-5-{[1-(6-methoxy-[1,5]naphthyridin-4-yl)-azetidin-3-ylamino]-methyl}-oxazolidin-2-one]
0.063 µg/mL (≈ 0.14 µM)	–	COc1ccc2nccc(N3CC[C@@H](NC[C@@H]4CN(c5ccc(C)c(F)c5)C(=O)O4)C3)c2n1 [Example 68, (R)-3-(3-Fluoro-4-methyl-phenyl)-5-{[(R)-1-(6-methoxy-[1,5]naphthyridin-4-yl)-pyrrolidin-3-ylamino]-methyl}-oxazolidin-2-one]
≤ 0.031 µg/mL	–	COc1ccc2cccc(N3CC(NC[C@@H]4CN(c5ccc6c(c5)NC(=O)CS6)C(=O)O4)C3)c2n1 [Example 158, 6-((R)-5-{[1-(2-Methoxy-quinolin-8-yl)-azetidin-3-ylamino]-methyl}-2-oxo-oxazolidin-3-yl)-4H-benzo[1,4]thiazin-3-one]
4 µg/mL	–	COc1ccc2nccc(N3CCCC(NC[C@@H]4CN(c5ccc6c(c5)OCCO6)C(=O)O4)C3)c2n1 (mixture of isomers) [Example 102, (R)-3-(2,3-Dihydro-benzo[1,4]dioxin-6-yl)-5-{[(RS)-1-(6-methoxy-[1,5]naphthyridin-4-yl)-piperidin-3-ylamino]-methyl}-oxazolidin-2-one]
≤ 0.031 µg/mL	–	COc1ccc2nccc(N3CCC(NC[C@@H]4CN(c5ccc6c(c5)NC(=O)CS6)C(=O)O4)CC3)c2n1 [Example 119, 6-((R)-5-{[1-(6-Methoxy-[1,5]naphthyridin-4-yl)-piperidin-4-ylamino]-methyl}-2-oxo-oxazolidin-3-yl)-4H-benzo[1,4]thiazin-3-one]
≤ 0.031 µg/mL	–	COc1ccc2nccc(N3CC[C@H](NC[C@@H]4CN(c5ccc6c(c5)NC(=O)CS6)C(=O)O4)C3)c2n1 [Example 70, 6-((R)-5-{[(S)-1-(6-Methoxy-[1,5]naphthyridin-4-yl)-pyrrolidin-3-ylamino]-methyl}-2-oxo-oxazolidin-3-yl)-4H-benzo[1,4]thiazin-3-one]
1 µg/mL (≈ 1.92 µM)	–	COc1ccc2nccc(N3CC(NC(=O)C[C@@H]4CN(c5ccc6c(c5)NC(=O)CS6)C(=O)O4)C3)c2n1 [Example 115, N-[1-(6-Methoxy-[1,5]naphthyridin-4-yl)-azetidin-3-yl]-2-[(R)-2-oxo-3-(3-oxo-3,4-dihydro-2H-benzo[1,4]thiazin-6-yl)-oxazolidin-5-yl]-acetamide]
≤ 0.031 µg/mL	–	COc1ccc2nccc(N3CC(NC[C@@H]4CN(c5ccc(C)c(F)c5)C(=O)O4)C3)c2n1 [Example 50, (R)-3-(3-Fluoro-4-methyl-phenyl)-5-{[1-(6-methoxy-[1,5]naphthyridin-4-yl)-azetidin-3-ylamino]-methyl}-oxazolidin-2-one]
≤ 0.031 µg/mL	–	COc1ccc2nccc(N3CCN(C[C@@H]4CN(c5ccc6c(c5)NC(=O)CS6)C(=O)O4)CC3)c2n1 [Example 22, 6-{(R)-5-[4-(6-Methoxy-[1,5]naphthyridin-4-yl)-piperazin-1-ylmethyl]-2-oxo-oxazolidin-3-yl}-4H-benzo[1,4]thiazin-3-one]
≤ 0.031 µg/mL	–	COc1ccc2nccc(N3CC[C@@H](NC[C@@H]4CN(c5ccc6c(c5)NC(=O)CS6)C(=O)O4)C3)c2n1 [Example 71, 6-((R)-5-{[(R)-1-(6-Methoxy-[1,5]naphthyridin-4-yl)-pyrrolidin-3-ylamino]-methyl}-2-oxo-oxazolidin-3-yl)-4H-benzo[1,4]thiazin-3-one]
≤ 0.031 µg/mL	–	CCOC(=O)[C@@H]1CN(c2ccnc3ccc(OC)nc23)C[C@H]1NC[C@H]1CN(c2ccc3c(c2)NC(=O)CS3)C(=O)O1 (relative stereo) [Example 73, (3R*,4S*)-1-(6-Methoxy-[1,5]naphthyridin-4-yl)-4-{[(S)-2-oxo-3-(3-oxo-3,4-dihydro-2H-benzo[1,4]thiazin-6-yl)-oxazolidin-5-ylmethyl]amino}-pyrrolidine-3-carboxylic acid ethyl ester]
